Measured values: PMC10115881, “Disrupting the α-synuclein-ESCRT interaction with a peptide inhibitor mitigates neurodegeneration in preclinical models of Parkinson’s disease” (Nature Communications, 2023)

How the values were obtained:
[1] = test system: WT a-syn expressing HEK293 cells; experiment: Cell Titer-Glo cell viability, WT a-syn expressing cells; assay type: cell-based, human; settings: WT alpha-synuclein; for Cell viability: MG132 10 μM, 72 h; for cell viability effect of peptides: Supp Figure 1A;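 on cell viability effect of peptides: measured without MG132 proteasome inhibitor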
Experimental: (§1) Oligonucleotides encoding the specific peptides were synthesized and individually cloned into the pLJM1 nGFP lentiviral vector. HEK293T cells were infected with individual constructs, and cell viability was assessed using Cell Titer-Glo luminescent assay (Promega) at 72 h post infection.
(§2) Cells were trypsinized from subconfluent cultures as described earlier, suspended in culture media, and then seeded into triplicate wells of a 96-well plate (100 µl/well) at a density of 1.5 × 10^4 cells per well with standard culture conditions of 5% CO2 at 37 °C. Cells were infected with lentivirus expressing peptide at a MOI of 5 for 72 h or transfected with plasmid for 72 h. Cell Titer-Glo reagent was added to each well (30 µL), according to the manufacturer’s protocol and […].

A53T a-syn = A53T a-syn protein level in HEK293 cells by immunoblot; assay type: cell-based, human
Experimental: Infected or transfected cells were scraped from six-well dishes and lysed with lysis buffer (50 mM Tris-HCl pH 7.4, 1% Nonidet P-40, 150 mM NaCl, 1 mM EDTA, 1× protease inhibitor mixture (Sigma)) for 30 min at 4 °C. The insoluble pellet was removed following a 10,000 rpm spin for 5 min at 4 °C. Lysates were analyzed by SDS-PAGE/immunoblot using 4–20% Mini-PROTEAN Tris-glycine gels (Bio-Rad), transferred to polyvinylidene fluoride (PVDF) membranes, and blocked in 5% milk containing PBS-Tween-20 (0.1%) for 1 h. PVDF membranes were then incubated with specified primary antibodies followed by incubation with horseradish peroxidase-conjugated secondary antibodies (anti-mouse HRP-linked, Cell Signaling, catalog #7076, 1:5000; anti-rabbit HRP-linked, Cell Signaling, catalog #7074, 1:5000) and detected using enhanced chemiluminescence (GE Healthcare). Anti-a-syn antibody (clone 42) was obtained from BD Biosciences (catalog #610787, 1:1000). Anti-LAMP1 antibody was obtained from Abcam (catalog #ab24170, 1:500). Anti-beta-actin antibody was obtained from Cell Signaling (13E5) (catalog #4970, 1:1000). Anti-CD63 antibody was obtained from R&D Systems (catalog #MAB50482-SP, 1:1000).

A53T a-syn oligomers = experiment: Luciferase PCA of A53T a-syn oligomers; assay type: cell-based, human; settings: for Effect on A53T a-syn oligomers: luciferase PCA, n=3
Experimental: as §1
(§3) Tet-off HEK293 cells stably expressing split luciferase-a-syn constructs and tet-off parent HEK293 cell lines were maintained in DMEM supplemented with 10% FBS and 1% pen/strep/glutamine. […] Cells were trypsinized from subconfluent culture and seeded in a 96-well plate at a density of 15,000 cells per well. Cells were incubated overnight at 37 °C in 5% CO2. Cells were transfected with GFP-peptide plasmids. After 6 h of incubation, 20 µL of cell medium was transferred to a black flat-bottomed 96-well plate. Fifty microliters of Working solution (Pierce Gaussia-Firefly Luciferase Dual Assay Kit, Thermo Scientific, 16181) were added into each well containing cell medium. Immediately after adding the reagent, samples were read using a luminometer with a 480 nm filter.

Flag-CHMP2B = experiment: Co-immunoprecipitation of Flag-CHMP2B with GFP-peptides; assay type: cell-based; settings: n = 3
Experimental: HEK293T cells were co-transfected with Flag-tagged target protein, HA-tagged source protein, and GFP-tagged peptide or GFP. Cells were lysed 48 h after transfections with radioimmune precipitation assay buffer (50 mM Tris-HCl pH 7.4, 1% Nonidet P-40, 150 mM NaCl, 1 mM EDTA, 10 mM Na3VO4, 10 mM sodium pyrophosphate, 25 mM NaF, 1× protease inhibitor mixture (Sigma)) for 30 min at 4 °C and co-immunoprecipitated with Flag beads (Clontech). The resulting immunocomplexes were analyzed by immunoblot using the appropriate antibodies. Protein samples were separated using 4–20% Mini-PROTEAN Tris-glycine gels (Bio-Rad) transferred to PVDF membranes and blocked in 5% milk containing PBS-Tween-20 (0.1%) for 1 h. PVDF membranes were then incubated with specified primary antibodies followed by incubation with horseradish peroxidase-conjugated secondary antibodies (anti-mouse HRP-linked, Cell Signaling, catalog #7076, 1:5000; anti-rabbit HRP-linked, Cell Signaling, catalog #7074, 1:5000) and detected using enhanced chemiluminescence (GE Healthcare). HA antibodies were obtained from Santa Cruz (catalog #7392, 1:2000), GFP antibodies were purchased from Abcam (catalog #ab290, 1:2000), and Flag antibodies were purchased from Sigma (catalog #A8592, 1:1000).

Parent HEK293 cells = experiment: Cell Titer-Glo cell viability, parent cells; assay type: cell-based, human; settings: for Cell viability: MG132 10 μM, 72 h; for cell viability effect of peptides: Supp Figure 1A;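 on cell viability effect of peptides: measured without MG132 proteasome inhibitor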
Experimental: as §1, §2

WT a-syn oligomers = experiment: Luciferase PCA of WT a-syn oligomers; assay type: cell-based, human; settings: for Oligomers %: WT oligomers, luciferase activity; for Effect on WT a-syn oligomers: luciferase PCA
Experimental: as §1, §3

[2] = test system: A53T a-syn expressing HEK293 cells; experiment: Cell Titer-Glo cell viability, A53T a-syn expressing cells; assay type: cell-based, human; settings: for cell viability effect of peptides: A53T a-syn, Supp Figure 1A; for Cell viability: A53T, MG132 10 μM, 72 h; for Effect of MIM motif peptides on cell viability in A53T a-syn expressing cells: Supp Figure 1H
Method in brief: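 HEK293 cells (1.5 × 10^4 per well, triplicate) were infected with peptide-expressing lentivirus at MOI 5 or transfected with plasmid for 72 h at 37 °C, 5% CO2. Viability was then measured with Cell Titer-Glo, […].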

| Substance | Cell viability ([1]; replicate 1) | Cell viability ([1]; replicate 2) | Cell viability ([1]; replicate 3) | cell viability effect of peptides ([1]; replicate 1) | cell viability effect of peptides ([1]; replicate 2) | cell viability effect of peptides ([1]; replicate 3) | Effect on A53T a-syn protein level (A53T a-syn) | Effect on A53T a-syn oligomers (A53T a-syn oligomers) | A53T a-syn oligomers as measured by luciferase activity (A53T a-syn oligomers; replicate 1) | A53T a-syn oligomers as measured by luciferase activity (A53T a-syn oligomers; replicate 2) | A53T a-syn oligomers as measured by luciferase activity (A53T a-syn oligomers; replicate 3) | Interaction with CHMP2B (Flag-CHMP2B) | Cell viability (Parent HEK293 cells; replicate 1) | Cell viability (Parent HEK293 cells; replicate 2) | Cell viability (Parent HEK293 cells; replicate 3) | cell viability effect of peptides (Parent HEK293 cells; replicate 1) | cell viability effect of peptides (Parent HEK293 cells; replicate 2) | cell viability effect of peptides (Parent HEK293 cells; replicate 3) | Oligomers % (WT a-syn oligomers; column 1) [%] | Oligomers % (WT a-syn oligomers; column 2) [%] | further results |
| --- | --- | --- | --- | --- | --- | --- | --- | --- | --- | --- | --- | --- | --- | --- | --- | --- | --- | --- | --- | --- | --- |
| DEEIERQLKALG [PDpep1.3] | 5800 | 5300 | 6000 | 14300 | 13800 | 14100 | reduction in a-syn | significant reduction in A53T a-syn oligomers | 222198 | 195592 | 221562 | interacted with Flag-CHMP2B | 4900 | 4200 | 4500 | 13700 | 13400 | 13100 | 99.8279 | 83.0465 | Oligomers % (WT a-syn oligomers; column 3): 73.1497%; Oligomers % (WT a-syn oligomers; column 4): 78.3132%; Oligomers % (WT a-syn oligomers; column 5): 63.6833%; Effect on WT a-syn oligomers (WT a-syn oligomers): significant reduction in a-syn oligomers; Effect on cell survival/viability ([2]; A53T a-syn cells): most prominent effects on cell survival; cell viability effect of peptides ([2]; replicate 1): 15000; cell viability effect of peptides ([2]; replicate 2): 15800; cell viability effect of peptides ([2]; replicate 3): 15200; Cell viability ([2]; replicate 1): 8500; Cell viability ([2]; replicate 2): 9100; Cell viability ([2]; replicate 3): 9000; Effect of MIM motif peptides on cell viability in A53T a-syn expressing cells ([2]; replicate 1): 8764; Effect of MIM motif peptides on cell viability in A53T a-syn expressing cells ([2]; replicate 2): 8800; Effect of MIM motif peptides on cell viability in A53T a-syn expressing cells ([2]; replicate 3): 8162 |
| IPIQLKA [PDpep1, initial screen hit peptide IPIQLKA] | 3500 | 3600 | 3700 | 12400 | 12300 | 12500 | reduction in a-syn | significant reduction in A53T a-syn oligomers | 221224 | 258154 | 261396 | interacted with Flag-CHMP2B | 3800 | 3900 | 4100 | 12300 | 12100 | 12500 | 91.6523 | 79.1738 | Oligomers % (WT a-syn oligomers; column 3): 70.9983%; Oligomers % (WT a-syn oligomers; column 4): 79.1738%; Oligomers % (WT a-syn oligomers; column 5): 65.4045%; Effect on WT a-syn oligomers (WT a-syn oligomers): significant reduction in a-syn oligomers; cell viability effect of peptides ([2]; replicate 1): 12800; cell viability effect of peptides ([2]; replicate 2): 14040; cell viability effect of peptides ([2]; replicate 3): 13200; Cell viability ([2]; replicate 1): 5500; Cell viability ([2]; replicate 2): 5200; Cell viability ([2]; replicate 3): 5000; Effect of MIM motif peptides on cell viability in A53T a-syn expressing cells ([2]; replicate 1): 5748; Effect of MIM motif peptides on cell viability in A53T a-syn expressing cells ([2]; replicate 2): 5350; Effect of MIM motif peptides on cell viability in A53T a-syn expressing cells ([2]; replicate 3): 5562 |
